# Legend:
# [1] = Plasma, tumor and lung exposure in mice of the Ba/F3 CDX efficacy experiment; type: in vivo; details: mouse, 15.0 mg/kg/day oral
# Procedure: On Day 14 after administration to the groups for the efficacy experiment, the plasma was collected from the mice by submandibular blood collection before last administration and 2 hours after last administration, and the plasma samples were collected from the mice at 1 h, 4 h, 8 h and 24 h after administration. About 100 ul of blood was collected each time, placed in an anticoagulation tube, and centrifuged at 8000 rpm for 7 min, to collect plasma, which was stored at −80° C.
# [2] = tested on: PC9 (EGFR-C797S/T790M/del19); details: combination with panitumumab or cetuximab; Nature Communications 8:14768, 2017; cited from earlier work
# [3] = target: EGFR (Δ19del/T790M/C797S) (Homo sapiens, UniProt P00533, C797S/T790M, form not given); experiment: Enzyme activity experiment (1): EGFR (Δ19del/T790M/C797S) enzyme inhibition; type: biochemical; details: read-out: EGFR (Δ19del/T790M/C797S) IC50
# EGFR (Δ19del/T790M/C797S), sequence (P00533 25-1210 T790M/C797S limits assumed, form open): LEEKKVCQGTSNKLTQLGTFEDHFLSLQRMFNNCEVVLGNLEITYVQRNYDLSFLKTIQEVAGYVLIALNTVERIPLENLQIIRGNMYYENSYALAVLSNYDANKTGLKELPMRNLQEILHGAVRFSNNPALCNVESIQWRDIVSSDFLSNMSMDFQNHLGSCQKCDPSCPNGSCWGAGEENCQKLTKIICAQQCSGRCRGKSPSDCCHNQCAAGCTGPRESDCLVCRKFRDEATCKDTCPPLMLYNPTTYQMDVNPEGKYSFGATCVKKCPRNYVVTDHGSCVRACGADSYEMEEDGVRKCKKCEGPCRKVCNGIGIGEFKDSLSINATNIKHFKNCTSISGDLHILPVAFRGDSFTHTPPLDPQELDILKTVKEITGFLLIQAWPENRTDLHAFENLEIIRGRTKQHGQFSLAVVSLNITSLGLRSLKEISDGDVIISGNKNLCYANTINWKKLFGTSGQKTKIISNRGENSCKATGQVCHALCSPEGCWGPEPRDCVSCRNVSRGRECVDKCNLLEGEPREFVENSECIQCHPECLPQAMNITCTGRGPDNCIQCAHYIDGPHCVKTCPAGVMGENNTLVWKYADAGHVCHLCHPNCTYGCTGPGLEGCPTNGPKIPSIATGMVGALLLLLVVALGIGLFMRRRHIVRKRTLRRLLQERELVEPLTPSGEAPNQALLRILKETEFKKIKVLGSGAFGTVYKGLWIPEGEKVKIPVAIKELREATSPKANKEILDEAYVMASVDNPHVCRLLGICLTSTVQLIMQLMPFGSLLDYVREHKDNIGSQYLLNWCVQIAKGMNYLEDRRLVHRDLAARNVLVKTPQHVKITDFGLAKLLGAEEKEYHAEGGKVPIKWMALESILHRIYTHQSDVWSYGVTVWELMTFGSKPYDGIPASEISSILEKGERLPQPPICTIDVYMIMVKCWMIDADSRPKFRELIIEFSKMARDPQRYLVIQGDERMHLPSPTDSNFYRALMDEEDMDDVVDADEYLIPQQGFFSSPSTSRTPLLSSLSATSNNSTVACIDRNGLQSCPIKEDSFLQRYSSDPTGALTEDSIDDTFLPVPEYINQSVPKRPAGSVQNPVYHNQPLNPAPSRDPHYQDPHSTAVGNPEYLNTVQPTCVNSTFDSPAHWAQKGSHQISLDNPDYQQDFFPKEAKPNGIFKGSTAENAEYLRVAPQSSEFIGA
# Procedure: 1) 10 μL of the compounds to be tested and reference compounds diluted to 10 mM were taken into an Echo LDV plate, which were diluted according to the compound profile with Echo.
# 1) 1×enzyme reaction buffer was prepared: 1× enzyme buffer, 5 mM MgCl2, 1 mM DTT (dithiothreitol), water.
# 2) A mixed solution of 10 nM enzyme (final concentration of 5 nM) and 2 μM substrate (final concentration of 1 μM) and a solution containing the substrate alone were prepared with the diluted enzyme reaction buffer.
# 3) 5 μL of the substrate was added into A1-H1, J24-P24 (the number of the well position), and 5 μL of the mixture of the enzyme and substrate was added into the remaining wells.
# 4) Centrifugation was performed at 1000 rpm at 23° C. for 30 s.
# 5) Incubation was performed at 23° C. for 15 min.
# 7) Centrifugation was performed at 1000 rpm at 23° C. for 30 s.
# 8) Incubation was performed at 23° C. for 60 min.
# 9) 10 μL of 250 nM TK Antibody-Crypate (a final concentration of 125 nM) and 1×D2 (a final concentration ½ time) prepared with Detection buffer were added.
# 10) Centrifugation was performed at 1000 rpm at 23° C. for 30 s.
# 11) Incubation was performed at 23° C. for 60 min.
# 12) The data was read with Envision, and the ratio was calculated to obtain the IC50 of the compound for inhibiting the enzyme activity.
# A431 cells (EGFR WT) = experiment: Cell antiproliferation experiment (1), A431 cells, CellTiter Glo; type: cell-based; details: Homo sapiens, A-431, 72 h, read-out: anti-proliferation effect on cells A431 EGFR WT IC50
# Procedure: 1) Cell Culture and Passage
# (1) A431 medium: 88% DMEM+10% fetal bovine serum+1% L-glutamine+1% double-antibody
# (2) A431 cells were isolated and passaged every 3-4 days, wherein the number of the cells for 3-day passage was 5e6 cells per T75 culture flask, and the number of the cells for 4-day passage was 3e6 cells per T75 culture flask.
# 2) Day 1: Preparation of Cell Plate
# (1) Phosphate buffer, trypsin, and a culture medium were placed in a water bath at 37° C. to preheat.
# (2) The original medium was removed from the cell culture flask and washed once with 6 mL of PBS.
# (3) 5 mL of phosphate buffer was pipetted into the culture flask to rinse the cells (passage 17), and then the liquid was discarded.
# (4) The cell culture flask was added with 3.5 mL of trypsin, and shaken gently, trypsin was removed after fully contact with the cells, and then the culture flask was placed in an incubator containing 5% CO2 at 37° C. for about 1 minute;
# (5) The cells were resuspended in 10 mL cell culture medium, and about 0.6 mL of cell suspension was take out for counting (ViCell XR);
# (6) The cell suspension was diluted with the medium to the cell density of 5e4 cells per ml, which was required for plating (cell concentration: 2500 cells per well);
# (7) 100 μL of phosphate buffer solution was added to each well around the cell plate, while 50 μL of the cell suspension was added to other wells, and the plate was incubated overnight in a incubator containing 5% CO2 at 37° C.
# (1) 9 μL of the compound (concentration: 1 mM) was added into a shallow well plate for Echo.
# (2) The shallow well plate was centrifuged at 1000 rpm for 10 s and the cell plate was removed from the incubator.
# (3) According to the layout of the microplate, the compounds was diluted with a three-fold concentration gradient using Echo, each compound was diluted to 10 concentration gradients and 250 nL of the diluted compounds was respectively added to the cell plate, and then the cell plate was returned to the incubator and further incubated for 3 days.
# 4) Day 5: Adding CTG and Reading the Plate
# (1) After incubation for 72 h, 25 μL of CellTiter Glo was added to each well of the cell plate, followed by shaking the plate for 10 min in the dark.
# (2) The plate was read on Envision.
# Data analysis: By computer fitting, the corresponding concentration of the compound at 50% inhibition rate was read as the IC50 of the compound for inhibiting cell activity.
# [4] = tested on: Ba/F3 (EGFR Δ19del/T790M/C797S) cells; experiment: Anti-proliferation experiment on cells (2), Ba/F3 (EGFR Δ19del/T790M/C797S); type: cell-based; details: Ba/F3 EGFR, 72 h; Ba/F3 cells, 3 days; read-out: anti-proliferation effect on cells Ba/F3(Δ19del/T790M/C797S) IC50
# Procedure: The compounds ware transferred to a 384-well plate, with 125 nL of compound per well. […] After 3 days, 25 μL of detection reagent was added. The plate was incubated at room temperature for 10 minutes and then read with Envision.
# [5] = tested on: pEGFR Ba/F3 (EGFR Δ19del/T790M/C797S) cells; experiment: Cell phosphorylation inhibition experiment, pEGFR Ba/F3 (EGFR Δ19del/T790M/C797S); type: cell-based; details: Ba/F3 EGFR; Ba/F3 cells, EGF stimulated; read-out: Effect on cellular EGFR phosphorylation Ba/F3(Δ19del/T790M/C797S) IC50
# Procedure: The test compounds and reference compounds were diluted with 100% DMSO to 10 mM or 1 mM, and then a gradient dilution was performed by using Echo, 150 nL per well, with a three-fold concentration gradient and a ten-point dose response curve. The final concentration of the compounds was 100 μM or 10 μM. The suspension cells was centrifuged at 1000 rp for 5 minutes, suspend in Hanks' balanced salt solution, and added to a 384-well plate containing the compounds at 10 L/120K/well (the cell density of 1.2×10^7), followed by centrifugation at 1200 rpm for 30 s and incubation at 37° C. for 30 min. 5 μL of EGF (which has been diluted with 0.1% BSA Hanks' balanced salt solution) was added to each well, in which the final concentration of EGF was 1 μM. The plate was centrifuged at 1200 rpm for 30 s and incubated at 37° C. for 20 min. 5 μL of 4× lysis buffer containing blocking solution was added to each well, and then the plate was centrifuged at 1200 rpm for 30 s, and incubated at 37° C. for 30 min.
# [6] = tested on: L858R/T790M/C797S mutations model; details: combined with EGFR monoclonal antibody such as cetuximab; Nature 534, 129-132, 2016; cited from earlier work
Structure (SMILES),IC50 [3] [nM],IC50 (A431 cells (EGFR WT)) [nM],IC50 [4] [nM],IC50 [5] [nM],also measured
"COc1cc(N2CCC(N3CCN(C)CC3)CC2)ccc1Nc1ncc(Cl)c(Nc2ccccc2P(C)(C)=O)n1 [Brigatinib, reference compound]",–,–,–,–,"AUC(0-t) ([1]; BALB/c nude, plasma): 32.8 µM·h; half-life ([1]; BALB/c nude, plasma): 5.57 h; concentration at 2 h ([1]; BALB/c nude, plasma, 2 h after administration): 5.18 µM; Lung, 2 h ([1]; 2 h after administration): 10217 nmol/kg; Tumor, 2 h ([1]; 2 h after administration): 5807 nmol/kg; antitumor efficacy [2]: good antitumor efficacy"
COc1cc(N2CCC3(CC2)CN(C)C3)c(C)cc1Nc1ncc(Cl)c(Nc2ccc3sccc3c2P(C)(C)=O)n1 [Compound 2],0.613,811,178,68,–
COc1cc(N2CCC(N3CCN(C)CC3)CC2)ccc1Nc1ncc(Cl)c(Nc2ccc3sccc3c2P(C)(C)=O)n1 [Compound 3],–,3240,638,187,–
COc1cc(N2CCC3(CCN(C)CC3)CC2)c(Cl)cc1Nc1ncc(Cl)c(Nc2ccc3ccccc3c2P(C)(C)=O)n1 [Compound 4],–,3750,556,278,–
COc1cc(N2CCC3(CC2)CN(C)C3)ccc1Nc1ncc(Cl)c(Nc2ccc3ccccc3c2P(C)(C)=O)n1 [Compound 5],1.63,890,313,96,–
COc1cc(N2CCC(N3CCN(C)CC3)CC2)ccc1Nc1ncc(Cl)c(Nc2ccc3ccccc3c2P(C)(C)=O)n1 [Compound 6],2.54,997,361,187,–
COc1cc(N2CCC3(CC2)CN(C)C3)c(C)cc1Nc1ncc(Cl)c(Nc2ccc3ccccc3c2P(C)(C)=O)n1 [Compound 9],0.485,282,149,149,–
COc1cc(N2CCC3(CC2)CN(C)C3)c(C)cc1Nc1ncc(Cl)c(Nc2ccc3cccnc3c2P(C)(C)=O)n1 [Compound 12],–,1260,239,203,–
COc1cc(N2CCC3(CC2)CN(C)C3)c(C)cc1Nc1ncc(Cl)c(Nc2ccc3cnn(C)c3c2P(C)(C)=O)n1 [Compound 13],5.79,> 10000,3620,1720,–
COc1cc(N2CCC3(CC2)CN(C)C3)c(C)cc1Nc1ncc(Br)c(Nc2ccc3nccnc3c2P(C)(C)=O)n1 [Compound 36],–,168,45,25,–
COc1cc(N2CCC3(CC2)CN(CCN(C)C)C3)c(C)cc1Nc1cc(Nc2ccc3nccnc3c2P(C)(C)=O)c(Br)cn1 [Compound 37],–,357,56,94,–
CCc1cc(Nc2ncc(Br)c(Nc3ccc4nccnc4c3P(C)(C)=O)n2)c(OC)cc1N1CCC2(CC1)CN(C)C2 [Compound 40],–,561,31,24,–
O=C(Nc1nccs1)C(c1cc(F)ccc1O)N1Cc2ccccc2C1=O (stereo not drawn) [EAI045],–,–,–,–,tumor inhibition effect [6]: better tumor inhibition effect
COc1cc(N2CCC(N3CCN(C)CC3)CC2)ccc1Nc1ncc(Cl)c(Nc2ccc3nccnc3c2P(C)(C)=O)n1 [Example 59],–,534,54.3,534,–
COc1cc(N2CCC(N3CCN(C)CC3)CC2)ccc1Nc1ncc(Br)c(Nc2ccc3nccnc3c2P(C)(C)=O)n1 [Example 60],–,271,47.6,271,–
COc1cc(N2CCC(N3CCN(C)CC3)CC2)c(C)cc1Nc1ncc(Cl)c(Nc2ccc3nccnc3c2P(C)(C)=O)n1 [Example 61],–,58,32.2,58,–

# Source: US11390625B2, “Aryl-phosphorus-oxygen compound as EGFR kinase inhibitor” (Chia Tai Tianqing Pharmaceutical Group Co., Ltd., priority 2017, dated 2022)
